≈ marks a conversion by molar mass, not a printed value.
Assays:
Staph. aureus 209-P = assay: Antibacterial activities (MIC), Staph. aureus 209-P; type: cell-based; details: Staphylococcus aureus
Text: (§1) (1) Antibacterial activities (MIC):

Escher. coli NIHJ = assay: Antibacterial activities (MIC), Escher. coli NIHJ; type: cell-based; details: Escherichia coli
Text: as §1

Kleb. pneumoniae EK-6 = assay: Antibacterial activities (MIC), Kleb. pneumoniae EK-6; type: cell-based; details: Klebsiella pneumoniae, EK6
Text: as §1

Proteus morganii EP-14 = assay: Antibacterial activities (MIC), Proteus morganii EP-14; type: cell-based; details: Morganella morganii, EP14
Text: as §1

Pseud. aeruginosa EP-01 = assay: Antibacterial activities (MIC), Pseud. aeruginosa EP-01; type: cell-based; details: Pseudomonas aeruginosa, EP01
Text: as §1

Ser. marcescens ES-75 = assay: Antibacterial activities (MIC), Ser. marcescens ES-75; type: cell-based; details: Serratia marcescens, ES75
Text: as §1

Proteus vulgaris E-18 = assay: Antibacterial activities (MIC), Proteus vulgaris E-18 (lactamase producing); type: cell-based; details: E18; Proteus vulgaris E-18, lactamase producing bacteria
Text: as §1
*Lactamase producing bacteria.

[1] = Urinary excretion rate in mice; type: in vivo, ICR male mice; details: mouse, sc, 20 mg/kg subcutaneous, urine up to 6 hours, bioassay
Procedure: ICR male mice (body weight: 20-30 g) were used. Each compound was dissolved in an M/15 phosphate buffer (pH 7.0) and administered in an amount of 20 mg/kg by the subcutaneous route. Urine was collected up to 6 hours after the administration. The concentration of the compound was determined by the bioassey technique (the agar-well method) using Pseudomonas aeruginosa as a test microorganism. On the basis of the thus-determined concentration, its excreted amount was obtained. The urinary excretion rate was then calculated from the excreted amount based on the amount administered.

Solubility in water = type: physicochemical; details: in distilled water at 25° C.
[2] = Acute toxicity LD50 (mouse, oral); details: in vivo
Text: The acute toxicity values [LD50 (mouse, oral)] of the following compounds were each 4 g/kg or greater;

| Compound | MIC (Staph. aureus 209-P) | MIC (Escher. coli NIHJ) | MIC (Kleb. pneumoniae EK-6) | MIC (Proteus morganii EP-14) | MIC (Pseud. aeruginosa EP-01) | MIC (Ser. marcescens ES-75) | MIC (Proteus vulgaris E-18) | dose excreted at 6 h [1] | solubility (Solubility in water) | LD50 [2] |
| --- | --- | --- | --- | --- | --- | --- | --- | --- | --- | --- |
| CO[C@@]1(NC(=O)[C@H](NC(=O)c2c(C)oc3cc(O)c(O)cc3c2=O)c2ccc(OCC(=O)O)cc2)C(=O)N2C(C(=O)O)=C(CSc3nnnn3CC(=O)O)CS[C@@H]21 [Example 25] | 100 µg/mL (≈ 121 µM) | 0.4 µg/mL (≈ 0.483 µM) | ≤ 0.05 µg/mL | 3.13 µg/mL (≈ 3.78 µM) | 0.4 µg/mL (≈ 0.483 µM) | 0.1 µg/mL (≈ 0.121 µM) | 0.4 µg/mL (≈ 0.483 µM) | 20% | ≥ 300 mg/mL | ≥ 4000 mg/kg |
| CO[C@@]1(NC(=O)[C@H](NC(=O)c2c(C)oc3c(O)c(O)ccc3c2=O)c2ccc(OCC(=O)O)cc2)C(=O)N2C(C(=O)O)=C(CSc3nnnn3CC(=O)O)CS[C@@H]21 [Example 28, Trisodium 7β-[D-2-(4-carboxymethoxyphenyl)-2-(7,8-dihydroxy-2-methyl-4-oxo-4H-1-benzopyran-3-carboxamido)-acetamido]-7α-methoxy-3-(1-carboxymethyl-5-tetrazolyl)-thiomethyl-3-cephem-4-carboxylate] | 100 µg/mL | 0.8 µg/mL | ≤ 0.05 µg/mL | 6.25 µg/mL | 0.8 µg/mL | 0.8 µg/mL | 3.13 µg/mL | 24% | – | – |
| CO[C@@]1(NC(=O)[C@H](NC(=O)c2coc3cc(O)c(O)cc3c2=O)c2ccc(OCC(=O)O)cc2)C(=O)N2C(C(=O)O)=C(CSc3nnnn3CC(=O)O)CS[C@@H]21 [Example 30, Trisodium 7β-[D-2-(4-carboxymethoxyphenyl)-2-(6,7-dihydroxy-4-oxo-4H-1-benzopyran-3-carboxamido)-acetamido]-7α-methoxy-3-(1-carboxymethyl-5-tetrazolyl)-thiomethyl-3-cephem-4-carboxylate] | 100 µg/mL | 0.8 µg/mL | ≤ 0.05 µg/mL | 6.25 µg/mL | 0.4 µg/mL | 0.2 µg/mL | 0.8 µg/mL | – | – | ≥ 4000 mg/kg |
| CO[C@@]1(NC(=O)[C@H](NC(=O)c2c(C)oc3cc(O)c(O)cc3c2=O)c2ccc(OCC(=O)O)cc2)C(=O)N2C(C(=O)O)=C(COC(C)=O)CS[C@@H]21 [Example 33, Disodium 7β-[D-2-(4-carboxymethoxyphenyl)-2-(6,7-dihydroxy-2-methyl-4-oxo-4H-1-benzopyran-3-carboxamido)acetamido]-7α-methoxy-3-acetoxymethyl-3-cephem-4-carboxylate] | 50 µg/mL | 0.8 µg/mL | ≤ 0.05 µg/mL | 12.5 µg/mL | 0.2 µg/mL | 0.8 µg/mL | 1.56 µg/mL | – | – | – |
| CO[C@@]1(NC(=O)[C@H](NC(=O)c2c(C)oc3cc(O)c(O)cc3c2=O)c2ccc(OCC(=O)O)cc2)C(=O)N2C(C(=O)[O-])=C(C[n+]3ccccc3)CS[C@@H]21 [Example 48, Sodium 7β-[D-2-(4-carboxymethoxyphenyl)-2-(6,7-dihydroxy-2-methyl-4-oxo-4H-1-benzopyran-3-carboxamido)acetamido]-7α-methoxy-3-pyridiniummethyl-3-cephem-4-carboxylate] | 100 µg/mL | 0.2 µg/mL | ≤ 0.05 µg/mL | 6.25 µg/mL | 0.2 µg/mL | 0.1 µg/mL | 1.56 µg/mL | 45% | ≥ 300 mg/mL | ≥ 4000 mg/kg |
| CO[C@@]1(NC(=O)[C@H](NC(=O)c2c(C)oc3cc(O)c(O)cc3c2=O)c2ccc(OCC(=O)O)cc2)C(=O)N2C(C(=O)[O-])=C(C[n+]3ccc(C(N)=O)cc3)CS[C@@H]21 [Example 50, Sodium 7β-[D-2-(4-carboxymethoxyphenyl)-2-(6,7-dihydroxy-2-methyl-4-oxo-4H-1-benzopyran-3-carboxamido)acetamido]-7α-methoxy-3-(4-carbamoylpyridinium)methyl-3-cephem-4-carboxylate] | 100 µg/mL | 1.56 µg/mL | 0.1 µg/mL | 12.5 µg/mL | 0.4 µg/mL | 0.8 µg/mL | 3.13 µg/mL | – | ≥ 300 mg/mL | ≥ 4000 mg/kg |
| CO[C@@]1(NC(=O)[C@H](NC(=O)c2coc3cc(O)c(O)cc3c2=O)c2ccc(OCC(=O)O)cc2)C(=O)N2C(C(=O)[O-])=C(C[n+]3ccc(C(N)=O)cc3)CS[C@@H]21 [Example 51, Sodium 7β-[D-2-(4-carboxymethoxyphenyl)-2-(6,7-dihydroxy-4-oxo-4H-1-benzopyran-3-carboxamido)-acetamido]-7α-methoxy-3-(4-carbamoylpyridinium)-methyl-3-cephem-4-carboxylate] | 50 µg/mL | 1.56 µg/mL | ≤ 0.05 µg/mL | 25 µg/mL | 0.4 µg/mL | 0.8 µg/mL | 3.13 µg/mL | 16% | ≥ 300 mg/mL | – |
